Laboratory results as given in paper PMC12655172, “Borylated 5-Membered Ring Iminosugars: Synthesis and Biological Evaluation for Glycosidase Inhibition and Anticancer Properties for Application in Boron Neutron Capture Therapy (BNCT)—Part 2” (Pharmaceuticals, 2025).

Experiments:
[1] = Sample appearance on sample preparation in water; format: physicochemical; conditions: 1 mL of water was added to 1 mg solid
[2] = system: MCF10A (non-tumour derived normal breast cell line); test: Cancer screening, MTT growth inhibition; format: cell-based; conditions: Homo sapiens, MCF-10A, 72 h; for inhibition at 25 µM: 25 µM of drug, read-out: DOSE SCREEN percentage (%) cell growth inhibition MCF10A Breast (normal); for GI50: read-out: DOSE RESPONSE GI50 MCF10A Breast (normal)
A431 (skin carcinoma) = test: Cancer screening, MTT growth inhibition; format: cell-based; conditions: Homo sapiens; for inhibition at 25 µM: A-431, 25 µM of drug, 72 h, read-out: DOSE SCREEN percentage (%) cell growth inhibition A431 Skin; for GI50: A-431, 72 h, read-out: DOSE RESPONSE GI50 A431 Skin
Protocol: (§1) For Table 4, all test agents were prepared as stock solutions ([…]) in dimethyl sulfoxide (DMSO) and stored at −20 °C. Cell lines used in the study included HT29 (colorectal carcinoma), A2780 (ovarian carcinoma), H460 (lung carcinoma), A431 (skin carcinoma), MiaPaCa-2 (pancreatic carcinoma), and SMA560 (spontaneous murine astrocytoma), together with MCF10A (non-tumour derived normal breast cell line). Cell line sources: the HT29, H460, and MiaPaCa-2, together with MCF10A were purchased from ATCC. The A2780 and A431 were purchased from the European Collection of Cell Culture (ECACC). All cell lines were incubated in a humidified atmosphere 5% CO2 at 37 °C. The cancer cell lines were maintained in Dulbecco’s modified Eagle’s medium (DMEM; Sigma, Truganina, Australia) supplemented with foetal bovine serum (10%), sodium pyruvate ([…]), penicillin (100 IUmL^−1), streptomycin (100 µg mL^−1), and L-glutamine ([…]).
(§2) Growth inhibition was determined by plating cells in duplicate in medium (100 µL) at a density of 2500–4000 cells per well in 96-well plates. On day 0 (24 h after plating), when the cells are in logarithmic growth, medium (100 µL) with or without the test agent was added to each well. […] Each data point is the mean ± the standard error of the mean (SEM) calculated from three replicates which were performed on separate occasions and separate cell line passages.

H460 (lung carcinoma) = test: Cancer screening, MTT growth inhibition; format: cell-based; conditions: Homo sapiens; for inhibition at 25 µM: NCI-H460, 25 µM of drug, 72 h, read-out: DOSE SCREEN percentage (%) cell growth inhibition H460 Lung; for GI50: NCI-H460, 72 h, read-out: DOSE RESPONSE GI50 H460 Lung
Protocol: as §1, §2

[3] = system: MIA-Pa-Ca2 (pancreatic carcinoma); test: Cancer screening, MTT growth inhibition; format: cell-based; conditions: Homo sapiens; for inhibition at 25 µM: MIA PaCa-2, 25 µM of drug, 72 h, read-out: DOSE SCREEN percentage (%) cell growth inhibition MIA-Pa-Ca2 Pancreatic; for GI50: MIA PaCa-2, 72 h, read-out: DOSE RESPONSE GI50 MIA-Pa-Ca2 Pancreatic
Protocol: as §1, §2

[4] = system: A2780 (ovarian carcinoma); test: Cancer screening, MTT growth inhibition; format: cell-based; conditions: Homo sapiens; for inhibition at 25 µM: A2780, 25 µM of drug, 72 h, read-out: DOSE SCREEN percentage (%) cell growth inhibition A2780 Ovarian; for GI50: A2780, 72 h, read-out: DOSE RESPONSE GI50 A2780 Ovarian
Protocol: as §1, §2

[5] = system: HT29 (colorectal carcinoma); test: Cancer screening, MTT growth inhibition; format: cell-based; conditions: Homo sapiens; for inhibition at 25 µM: HT-29, 25 µM of drug, 72 h, read-out: DOSE SCREEN percentage (%) cell growth inhibition HT29 Colon; for GI50: HT-29, 72 h, read-out: DOSE RESPONSE GI50 HT29 Colon
Protocol: as §1, §2

[6] = system: T1, trehalase (porcine kidney); test: Glycosidase inhibition (Table 2 panel); format: biochemical
T1 construct: purchased Sigma-Aldrich; host or cells: porcine kidney
Source text: (§3) The enzymes α-D-glucosidase (yeast), β-D-glucosidases (almond, bovine liver), α-D-galactosidase (coffee beans), β-D-galactosidase (bovine liver), α-D-mannosidase (Jack bean), β-D-mannosidase (snail), α-L-rhamnosidase (P. decumbens), α-L-fucosidase (bovine kidney), trehalase (porcine kidney), β-D-glucuronidases (E. coli, bovine liver), amyloglucosidase (A. niger), para-nitrophenyl glycosides, and various disaccharides were purchased from Sigma-Aldrich Co (St. Louis, MO, USA).
(§4) Brush border membranes were prepared from the rat small intestine according to the method of Kessler et al., and were assayed at pH 6.8 for rat intestinal maltase using maltose. For rat intestinal maltase, porcine kidney trehalase, and A. niger amyloglucosidase activities, the reaction mixture contained maltose ([…]) and the appropriate amount of enzyme, and the incubations were performed for 10–30 min at 37 °C. The reaction was stopped by heating at 100 °C for 3 min. After centrifugation (600 g; 10 min), the resulting reaction mixture was added to the Glucose CII-test Wako (Wako Pure Chemical Ind., Osaka, Japan). The absorbance at 505 nm was measured to determine the amount of the released D-glucose. Other glycosidase activities were determined using an appropriate para-nitrophenyl glycoside as substrate at the optimum pH of each enzyme. The reaction mixture contained the substrate ([…]) and the appropriate amount of enzyme. The reaction was stopped by the addition of Na2CO3 ([…]). The released para-nitrophenol was measured spectrometrically at 400 nm. All reactions were run in […].

[7] = system: T2, α-D-galactosidase (coffee beans); test: Glycosidase inhibition (Table 2 panel); format: biochemical
T2 construct: purchased Sigma-Aldrich; host or cells: coffee beans
Source text: as §3, §4

β-D-glucosidase (almond) = test: Glycosidase inhibition (Table 2 panel); format: biochemical
Source text: as §3, §4

[8] = target: T3, β-D-glucosidase (bovine liver) (Bos taurus, UniProt F1MNT6); test: Glycosidase inhibition (Table 2 panel); format: biochemical; conditions: at 100 μM
T3 sequence (F1MNT6 1-469): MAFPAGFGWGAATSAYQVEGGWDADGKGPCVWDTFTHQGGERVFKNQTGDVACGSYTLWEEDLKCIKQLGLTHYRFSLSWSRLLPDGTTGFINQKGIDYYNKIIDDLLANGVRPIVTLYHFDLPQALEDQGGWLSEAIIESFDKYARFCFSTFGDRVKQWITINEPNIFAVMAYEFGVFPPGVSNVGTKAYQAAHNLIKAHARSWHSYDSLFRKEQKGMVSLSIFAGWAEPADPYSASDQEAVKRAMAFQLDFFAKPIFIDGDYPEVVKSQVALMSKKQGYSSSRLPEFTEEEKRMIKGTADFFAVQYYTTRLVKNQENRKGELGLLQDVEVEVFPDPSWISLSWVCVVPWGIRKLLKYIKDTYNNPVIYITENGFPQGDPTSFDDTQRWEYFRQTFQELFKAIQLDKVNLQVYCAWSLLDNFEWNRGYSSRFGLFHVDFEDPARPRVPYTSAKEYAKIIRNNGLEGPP
Source text: as §3, §4

α-D-glucosidase (rice) = α-D-glucosidase (rice) (Oryza sativa subsp. japonica, UniProt Q653V7); test: Glycosidase inhibition (Table 2 panel); format: biochemical
Source text: as §3, §4

β-D-mannosidase (snail) = test: Glycosidase inhibition (Table 2 panel); format: biochemical
Source text: as §3, §4

[9] = system: α-L-rhamnosidase (P. decumbens); test: Glycosidase inhibition (Table 2 panel); format: biochemical
Source text: as §3, §4

[10] = system: α-D-glucosidase (rat intestinal maltase); test: Glycosidase inhibition (Table 2 panel); format: biochemical
Source text: as §3, §4

Chain of α-D-glucosidase (rice) (Q653V7 34-885): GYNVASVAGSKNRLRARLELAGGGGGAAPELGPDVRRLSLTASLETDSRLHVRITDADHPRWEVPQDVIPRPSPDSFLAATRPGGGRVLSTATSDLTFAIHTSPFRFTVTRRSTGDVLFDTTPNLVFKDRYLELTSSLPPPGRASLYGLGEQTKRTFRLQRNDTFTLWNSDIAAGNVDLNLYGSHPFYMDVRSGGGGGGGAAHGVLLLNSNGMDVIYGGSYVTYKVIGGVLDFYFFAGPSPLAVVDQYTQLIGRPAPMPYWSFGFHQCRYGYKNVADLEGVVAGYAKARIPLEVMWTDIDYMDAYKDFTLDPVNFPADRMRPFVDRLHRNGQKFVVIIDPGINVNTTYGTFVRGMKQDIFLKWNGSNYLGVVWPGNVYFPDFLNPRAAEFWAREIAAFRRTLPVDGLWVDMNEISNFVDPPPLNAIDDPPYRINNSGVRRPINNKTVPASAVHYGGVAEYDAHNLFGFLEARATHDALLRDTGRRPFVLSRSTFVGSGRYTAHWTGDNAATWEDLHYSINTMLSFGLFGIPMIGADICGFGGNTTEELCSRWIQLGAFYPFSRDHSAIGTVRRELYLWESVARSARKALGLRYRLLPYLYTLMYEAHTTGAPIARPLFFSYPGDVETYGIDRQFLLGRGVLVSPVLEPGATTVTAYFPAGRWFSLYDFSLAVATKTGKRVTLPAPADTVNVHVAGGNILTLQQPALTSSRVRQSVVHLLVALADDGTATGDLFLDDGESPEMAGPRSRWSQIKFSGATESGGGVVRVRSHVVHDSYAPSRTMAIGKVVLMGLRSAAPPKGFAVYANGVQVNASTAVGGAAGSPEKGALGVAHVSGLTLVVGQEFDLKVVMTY

Compound	Sample Appearance [1]	inhibition at 25 µM [2] [%]	GI50 [2] [µM]	inhibition at 25 µM (A431 (skin carcinoma)) [%]	GI50 (A431 (skin carcinoma)) [µM]	inhibition at 25 µM (H460 (lung carcinoma)) [%]	GI50 (H460 (lung carcinoma)) [µM]	inhibition at 25 µM [3] [%]	GI50 [3] [µM]	inhibition at 25 µM [4] [%]	GI50 [4] [µM]	inhibition at 25 µM [5] [%]	GI50 [5] [µM]	inhibition % Trehalase Porcine Kidney ([6]; at 100 μM)	inhibition % α-D-Galactosidase Coffee Beans ([7]; at 100 μM)	inhibition % β-D-Glucosidase Almond (β-D-glucosidase (almond); at 100 μM)	inhibition at 100 µM [8] [%]	inhibition at 100 µM (α-D-glucosidase (rice)) [%]	inhibition % β-D-Mannosidase Snail (β-D-mannosidase (snail); at 100 μM)	inhibition % α-L-Rhamnosidase P. decumbens ([9]; at 100 μM)	also measured
CC1(C)O[C@H]2O[C@H]3[C@@H]([C@H]2O1)N(Cc1cccc(O)c1)C[C@H]3O [meta 6]	In solution	4 ± 2	> 50	4 ± 9	> 50	6 ± 3	> 50	12 ± 4	> 50	23 ± 6	> 50	4 ± 3	> 50	^cNI ^d(0%)	^cNI ^d(0%)	^cNI ^d(6.3%)	15.8	0	^cNI ^d(0.6%)	^cNI ^d(6.5%)	inhibition % α-D-Glucosidase Rat Intestinal Maltase ([10]; at 100 μM): ^cNI ^d(4.7%)
OB(O)c1ccccc1CN1C[C@@H](O)[C@H]2OC(O)[C@H](O)[C@H]21 (stereo partly drawn) [ortho 3, N-(2-Methylphenylboronic acid)-3,6-dideoxy-3,6-imino-D-gulofuranose]	In solution	9 ± 7	> 50	3 ± 1	> 50	2 ± 1	> 50	5 ± 5	> 50	17 ± 2	> 50	< 0	> 50	^cNI ^d(0%)	^cNI ^d(0%)	^cNI ^d(13.7%)	0	0	^cNI ^d(0%)	^cNI ^d(0%)	inhibition % Trehalase Porcine Kidney ([6]; at 1000 μM): ^aNI ^b(0%); inhibition % α-D-Galactosidase Coffee Beans ([7]; at 1000 μM): ^aNI ^b(0%); inhibition % β-D-Glucosidase Almond (β-D-glucosidase (almond); at 1000 μM): ^aNI ^b(38.8%); inhibition at 1000 µM (α-D-glucosidase (rice); at 1000 μM): 0%; inhibition % β-D-Mannosidase Snail (β-D-mannosidase (snail); at 1000 μM): ^aNI ^b(0%); inhibition % α-L-Rhamnosidase P. decumbens ([9]; at 1000 μM): ^aNI ^b(3.2%); inhibition % α-D-Glucosidase Rat Intestinal Maltase ([10]; at 100 μM): ^cNI ^d(0%); inhibition % α-D-Glucosidase Rat Intestinal Maltase ([10]; at 1000 μM): ^aNI ^b(0.7%)
